Laboratory results taken from patent US10246455B2, “Histone deacetylase inhibitors” (Taipei Medical University, priority 2014, dated 2019).

Assays:
[1] = system: PC3 prostate cancer cells; assay: Three dimensional cell growth inhibitory assay (cellular spheres, MTT, microscopy): PC3; format: cell-based, human; details: Homo sapiens
Protocol: For the three dimensional assay, cells in the logarithmic phase were cultured in 50% Matrigel-containing complete medium in 96-well plates at 37° C. with 5% CO2 for five days incubation, and treated with appropriate concentrations of test compounds for three generative times. Images of spheroids were taken under a microscope, and spheroid cell survival was determined by MTT assays.
The cells (in the 2D culture) and the cellular spheres (in the 3D culture) were treated with test compounds for 72 hours, and then subjected to the MTT colorimetric assay. Each value represents the mean of three independent experiments. Cellular spheres formed in semi-solid and drug effect on cellular spheres were examined using phase-contrast light microscopy.
More specifically, cellular spheres formed in semi-solid and drug effect on cellular spheres were examined using phase-contrast light microscopy. 3D structures of cells were analyzed using 4× magnification, 10× magnification, and 20× magnification.

[2] = system: PC3 prostate cancer cells; assay: Two dimensional cell growth inhibitory assay (MTT): PC3; details: Homo sapiens
Protocol: For the two dimensional assay, cancel cells in the logarithmic phase were cultured in complete medium in 96-well plates at 37° C. with 5% CO2 for overnight incubation, and treated with various concentrations of test compounds for three generative times. Cells were then incubated with a serum free medium containing 3-(4,5-dimethylthiazol-2-yl)-2,5-diphenyltetrazolium bromide (MTT) at a final concentration of 0.5 mg/mM for four hours. MTT was converted to formazan by metabolically viable cells. Formazan was then solublized in 50% DMF solution containing 20% SDS at 37° C. overnight. Absorbance was measured at 570 nm using a spectramax M5 microplate reader (Molecular Devices, UK).

[3] = system: KB cell line (oral carcinoma); assay: IC50 in human cancer cell lines (inhibiting HDAC): KB; details: Homo sapiens, read-out: IC50, inhibiting HDAC in human cancer cell lines, KB, oral carcinoma
C6 glioma cell line = assay: Cell death in C6 glioma in vitro (LDH assay); format: cell-based; details: rat C6 glioma, 30 uM, after 3 days
Protocol: Cell death was analyzed by a lactate dehydrogenase (LDH) assay. The culture medium was centrifuged after the experiment and the activity of LDH released into culture media was detected with a LDH cytotoxicity detection kit (Roche). The percentage of cytotoxicity was determined by the equation: [(Experimental group−Control group)/(Triton-100-treated group (100% maximal death)−Control group)]×100%.

KB-VIN10 (KB resistant) = assay: IC50 against human cancer cell lines: KB-VIN10; details: read-out: IC50 ± SD against human cancer cell lines; KB-VIN10, KB resistant
[4] = system: A549 (non-small-cell lung carcinoma); assay: IC50 in human cancer cell lines (inhibiting HDAC): A549; details: read-out: IC50, inhibiting HDAC in human cancer cell lines; A549, non-small-cell lung carcinoma
[5] = Table 6, cell line not given, read-out: IC50 value 3D Culture
[6] = read-out: IC50 value 2D Culture

IC50 [3] [nM] | melting point [°C] | SMILES | other results
– | – | COc1cccc2c1C(=O)c1c(O)c3c(c(O)c1C2=O)C[C@@](O)(C(=O)CO)C[C@@H]3O[C@H]1C[C@H](N)[C@H](O)[C@H](C)O1 [Adriamycin] | IC50 [1, 5]: 720 ± 40 nM; IC50 ([1]; read-out: 3D Culture): 720 ± 40 nM; IC50 ([2]; read-out: 2D Culture): 70 ± 30 nM; IC50 [2, 6]: 70 ± 30 nM
< 6000 | 188 to 191 | O=C(/C=C/c1cccc(S(=O)(=O)n2ccc3ccccc32)c1)NO [Compound 1, (E)-3-(3-(1H-indol-1-ylsulfonyl)phenyl)-N-hydroxyacrylamide] | –
< 6000 | 207 to 209 | O=C(/C=C/c1cccc(S(=O)(=O)N2CCc3ccccc32)c1)NO [Compound 2, (E)-N-hydroxy-3-(3-(indolin-1-ylsulfonyl)phenyl)acrylamide] | –
< 6000 | – | O=C(/C=C/c1cccc(S(=O)(=O)n2ccc3cncnc32)c1)NO [Compound 4, (E)-3-(3-((7H-Pyrrolo[2,3-d]pyrimidin-7-yl)sulfonyl)phenyl)-N-hydroxyacrylamide] | –
– | 148 to 150 | O=C(/C=C/c1cccc(S(=O)(=O)n2ccc3ncccc32)c1)NO [Compound 5, (E)-3-(3-(1H-Pyrrolo[3,2-b]pyridin-1-ylsulfonyl)phenyl)-N-hydroxyacrylamide] | –
– | 128 to 129 | O=C(/C=C/c1cccc(S(=O)(=O)n2ccc3ccncc32)c1)NO [Compound 6, (E)-3-(3-(1H-Pyrrolo[2,3-c]pyridin-1-ylsulfonyl)phenyl)-N-hydroxyacrylamide] | –
< 6000 | – | COc1ccc(S(=O)(=O)N2CCc3cc(/C=C/C(=O)Nc4ccccc4N)cnc32)cc1 [Compound 6a, (E)-N-(2-aminophenyl)-3-(1-(4-methoxyphenylsulfonyl)-2,3-dihydro-1H-pyrrolo[2,3-b]pyridin-5-yl)acrylamide] | –
< 6000 | 228 to 230 | O=C(/C=C/c1cccc(S(=O)(=O)N2CCc3cccnc32)c1)NO [Compound 8, (E)-3-(3-(2,3-Dihydro-1H-pyrrolo[2,3-b]pyridin-1-ylsulfonyl)phenyl)-N-hydroxyacrylamide] | –
< 6000 | – | O=C(/C=C/c1ccc(S(=O)(=O)n2ncc3ccccc32)cc1)NO [Compound 9, (E)-3-(4-(1H-Indazol-1-ylsulfonyl)phenyl)-N-hydroxyacrylamide] | –
< 6000 | 188 to 190 | O=C(/C=C/c1ccc(S(=O)(=O)n2ccc3ncccc32)cc1)NO [Compound 10, (E)-3-(4-(1H-Pyrrolo[3,2-b]pyridin-1-ylsulfonyl)phenyl)-N-hydroxyacrylamide] | –
< 6000 | – | COc1ccc(S(=O)(=O)N2CCc3cc(C(=O)NO)cnc32)cc1 [Compound 10a, N-hydroxy-1-(4-methoxyphenylsulfonyl)-2,3-dihydro-1H-pyrrolo[2,3-b]pyridine-5-carboxamide] | –
< 6000 | 167 to 169 | O=C(/C=C/c1ccc(S(=O)(=O)n2ccc3ccncc32)cc1)NO [Compound 11, (E)-3-(4-(1H-Pyrrolo[2,3-c]pyridin-1-ylsulfonyl)phenyl)-N-hydroxyacrylamide] | –
– | 169 to 170 | O=C(/C=C/c1ccc(S(=O)(=O)n2ccc3cccnc32)cc1)NO [Compound 12, (E)-3-(4-(1H-Pyrrolo[2,3-b]pyridin-1-ylsulfonyl)phenyl)-N-hydroxyacrylamide] | –
< 6000 | 220 to 223 | O=C(/C=C/c1ccc(S(=O)(=O)N2CCc3cccnc32)cc1)NO [Compound 13, (E)-3-(4-(2,3-Dihydro-1H-pyrrolo[2,3-b]pyridin-1-ylsulfonyl)phenyl)-N-hydroxyacrylamide] | –
< 6000 | – | Nc1ccccc1NC(=O)c1ccc(Cn2ccc3ccccc32)cc1 [Compound 14, 4-((1H-Indol-1-yl)methyl)-N-(2-aminophenyl)benzamide] | –
< 6000 | – | Nc1ccccc1NC(=O)c1ccc(CN2CCc3ccccc32)cc1 [Compound 15, N-(2-Aminophenyl)-4-(indolin-1-ylmethyl)benzamide] | –
< 6000 | 185 to 188 | Nc1ccccc1NC(=O)c1ccc(Cn2ncc3ccccc32)cc1 [Compound 16, 4-((1H-Indazol-1-yl)methyl)-N-(2-aminophenyl)benzamide] | –
< 6000 | 116 to 118 | Nc1ccccc1NC(=O)c1ccc(Cn2ccc3ncccc32)cc1 [Compound 17, 4-((1H-Pyrrolo[3,2-b]pyridin-1-yl)methyl)-N-(2-aminophenyl)-benzamide] | –
< 6000 | 165 to 167 | Nc1ccccc1NC(=O)c1ccc(Cn2ccc3cnccc32)cc1 [Compound 18, 4-((1H-Pyrrolo[3,2-c]pyridin-1-yl)methyl)-N-(2-aminophenyl)benzamide] | –
< 6000 | 154 to 155 | Nc1ccccc1NC(=O)c1ccc(Cn2ccc3ccncc32)cc1 [Compound 19, 4-((1H-Pyrrolo[2,3-c]pyridin-1-yl)methyl)-N-(2-aminophenyl)-benzamide] | –
< 6000 | 158 to 159 | Nc1ccccc1NC(=O)c1ccc(Cn2ccc3cccnc32)cc1 [Compound 20, 4-((1H-Pyrrolo[2,3-b]pyridin-1-yl)methyl)-N-(2-aminophenyl)benzamide] | –
< 6000 | 105 to 107 | Nc1ccccc1NC(=O)c1ccc(CN2CCc3cccnc32)cc1 [Compound 21, N-(2-Aminophenyl)-4-((2,3-dihydro-1H-pyrrolo[2,3-b]pyridin-1-yl)methyl)benzamide] | –
< 6000 | – | O=C(NO)c1ccc(Cn2ccc3cccnc32)cc1 [Compound 23, N-Hydroxy-4-pyrrolo[2,3-b]pyridin-1-ylmethyl-benzamide] | –
– | – | CC(=O)O[C@H]1C(=O)[C@@]2(C)[C@H]([C@H](OC(=O)c3ccccc3)[C@]3(O)C[C@H](OC(=O)[C@H](O)[C@@H](NC(=O)c4ccccc4)c4ccccc4)C(C)=C1C3(C)C)[C@]1(OC(C)=O)CO[C@@H]1C[C@@H]2O [Paclitaxel] | IC50 [1, 5]: 5850 ± 70 nM; IC50 ([1]; read-out: 3D Culture): 5850 nM; IC50 ([2]; read-out: 2D Culture): 0.2 ± 0.1 nM; IC50 [2, 6]: 0.2 ± 0.1 nM
– | – | O=C(CCCCCCC(=O)Nc1ccccc1)NO [SAHA, reference compound] | induction of cell death (LDH) (C6 glioma cell line): about 70%; IC50 (KB-VIN10 (KB resistant)): 1850 ± 526 nM; IC50 [4]: 1540 ± 80 nM
– | – | CC[C@]1(O)C[C@H]2CN(CCc3c([nH]c4ccccc34)[C@@](C(=O)OC)(c3cc4c(cc3OC)N(C=O)[C@H]3[C@@](O)(C(=O)OC)[C@H](OC(C)=O)[C@]5(CC)C=CCN6CC[C@]43[C@@H]65)C2)C1 [Vincristine] | IC50 [1, 5]: 2.5 ± 0.71 nM; IC50 ([1]; read-out: 3D Culture): 2.5 ± 0.71 nM; IC50 ([2]; read-out: 2D Culture): 0.75 ± 0.64 nM; IC50 [2, 6]: 0.75 ± 0.64 nM
